From US20230120597A1, “CO-AGONISTS AT GLP-1 AND GIP RECEPTORS SUITABLE FOR ORAL DELIVERY” (Novo Nordisk A/S, priority 2020, published 2023)
Where two headings read alike, the source gives them in different places. Starred links: 1 amine or outer side, 2 acyl side, 3 side chain; linkers in the order of their positions; H or OH if unused. Non-standard residues stand in square brackets, D forms with d. Residues, ends and D or L forms follow the SMILES beside them. Groups on a side chain read outwards from the residue. *: point of attachment. C18 diacid = O=C(O)CCCCCCCCCCCCCCCCC(=O)*; γGlu = O=C(O)[C@H](CCC(=O)[*:2])N[*:1]; εLys = N[C@@H](CCCCN[*:1])C(=O)[*:2]; AEEA = NCCOCCOCC(=O)O; Aib = CC(C)(N)C(=O)O

Legend:
human GIP receptor = molecular target: T1, human GIP receptor (Homo sapiens, UniProt P48546); assay: In vitro functional potency, CRE luciferase reporter gene assay, whole BHK cells expressing hGIPR; assay type: cell-based; conditions: BHK CRE luc2P hGIPR cells
T1 construct: expressed in transfected cells; host or cells: BHK (parent line BHKTS13), clone BHK CRE luc2P hGIPR
T1 sequence (P48546 22-466): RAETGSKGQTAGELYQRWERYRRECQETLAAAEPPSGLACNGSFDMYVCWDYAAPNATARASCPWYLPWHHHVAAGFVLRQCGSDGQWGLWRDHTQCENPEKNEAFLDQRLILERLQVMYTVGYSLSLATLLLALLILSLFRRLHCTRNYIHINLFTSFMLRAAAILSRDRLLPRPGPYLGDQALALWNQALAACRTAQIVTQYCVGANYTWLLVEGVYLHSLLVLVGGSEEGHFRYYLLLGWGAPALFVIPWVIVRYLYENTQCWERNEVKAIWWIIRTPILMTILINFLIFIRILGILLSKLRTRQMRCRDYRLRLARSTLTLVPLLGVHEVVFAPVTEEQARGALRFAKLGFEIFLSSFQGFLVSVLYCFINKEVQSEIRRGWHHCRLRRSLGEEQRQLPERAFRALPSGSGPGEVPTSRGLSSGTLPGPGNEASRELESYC
Method: (§1) The in vitro functional potency is the measure of target receptor activation in a whole cell assay.
(§2) In vitro functional potency was determined by measuring the response of the target receptor in a reporter gene assay in individual cell lines. […] When the respective receptor is activated, it results in the production of cAMP, which in turn results in expression of the luciferase protein. When assay incubation is completed, luciferase substrate (luciferin) is added resulting in the enzymatic conversion of luciferin to oxyluciferin and producing bioluminescence. The luminescence is measured as the readout for the assay.
(§3) The cells lines used in these assays were BHK cells with BHKTS13 as a parent cell line. The cell lines were derived from a clone containing the CRE luciferase element and were established by further transfection with the respective human receptor to obtain the relevant cell line: BHK CRE luc2P hGLP-1R or BHK CRE luc2P hGIPR. The cells were cultured at 37° C. with 5% CO2 in Cell Culture Medium. They were aliquoted and stored in liquid nitrogen. The cells were kept in continuous culture and were seeded out the day before each assay.
(§4) GLP-1R Cell Culture Medium consisted of DMEM medium with 10% FBS, 500 μg/mL G418, and 300 μg/mL hygromycin. GIPR Cell Culture Medium consisted of DMEM medium with 10% FBS, 400 μg/mL G418, and 300 μg/mL hygromycin. Assay Buffer consisted of DMEM w/o phenol red, 10 mM Hepes, 1× Glutamax. 1% ovalbumin, and 0.1% Pluronic F-68 with the addition of HSA at twice the final assay concentration.
(§5) Procedure • 1) Cells were plated at 5000 cells/well and incubated overnight in the assay plate. • 2) Cells were washed once in DPBS. • 3) Stocks of the test compounds and reference compounds in concentrations ranging from […] were diluted 1:150 in Assay Buffer. Compounds were then diluted 1:10 in column 1 of a 96 deep well dilution plate and then carried across the row creating a 3.5 fold, 12 point dilution curve. • 4) Assay Buffer (50 μl aliquot) with or without HSA was added to each well in the assay plate. • 5) A 50 μl aliquot of compound or blank was transferred from the dilution plate to the assay plate containing the Assay Buffer with or without HSA. • 6) The assay plate was incubated for 3 h in a 5% CO2 incubator at 37° C. • 7) The cells were washed once with DPBS. • 8) A 100 μl aliquot of DPBS was added to each well of the assay plate. • 9) A 100 μl aliquot of steadylite plus reagent (light sensitive) was added to each well of the assay plate. • 10) Each assay plate was covered with aluminum foil to protect it from light and shaken at 250 RPM for 30 min at room temperature. • 11) Each assay plate was read in a microtiter plate reader.
(§6) The data from the microtiter plate reader was first regressed in an Excel in order to calculate the x-axis, log scale concentrations based on the individual test compound's stock concentration and the dilutions of the assay. […] The software performs a non-linear regression (log(agonist) vs response). A minimum of two replicates was measured for each sample. The reported values are averages of the replicates.

human GLP-1 receptor = molecular target: T2, human GLP-1 receptor (Homo sapiens, UniProt P43220); assay: In vitro functional potency, CRE luciferase reporter gene assay, whole BHK cells expressing hGLP-1R; assay type: cell-based; conditions: BHK CRE luc2P hGLP-1R cells
T2 construct: expressed in transfected cells; host or cells: BHK (parent line BHKTS13), clone BHK CRE luc2P hGLP-1R
Method: as §1, §2, §3, §4, §5, §6

[1] = 0% HSA, read-out: hGIPR, CRE Luc 0% HSA EC50
[2] = hGIPR, CRE Luc 1% HSA EC50, 1% HSA
[3] = 0% HSA, read-out: hGLP-1R, CRE Luc 0% HSA EC50
[4] = hGLP-1R, CRE Luc 1% HSA EC50, 1% HSA

T2 sequence (P43220 24-463): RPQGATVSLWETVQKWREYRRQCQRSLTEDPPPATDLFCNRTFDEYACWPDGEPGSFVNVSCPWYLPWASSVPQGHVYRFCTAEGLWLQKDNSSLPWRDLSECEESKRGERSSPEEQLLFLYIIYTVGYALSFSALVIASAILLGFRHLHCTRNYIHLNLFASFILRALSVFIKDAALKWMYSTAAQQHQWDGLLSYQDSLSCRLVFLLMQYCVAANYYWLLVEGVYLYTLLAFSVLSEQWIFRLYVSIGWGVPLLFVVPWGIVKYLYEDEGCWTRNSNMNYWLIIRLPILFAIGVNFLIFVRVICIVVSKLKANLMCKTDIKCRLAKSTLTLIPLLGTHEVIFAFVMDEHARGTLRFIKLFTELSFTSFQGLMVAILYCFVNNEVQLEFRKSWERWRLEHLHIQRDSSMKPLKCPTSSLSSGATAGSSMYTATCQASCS

| SMILES | EC50 (human GIP receptor; [1]) [nM] | EC50 (human GIP receptor; [2]) [nM] | EC50 (human GLP-1 receptor; [3]) [nM] | EC50 (human GLP-1 receptor; [4]) [nM] |
| --- | --- | --- | --- | --- |
| CC(C)C[C@H](NC(=O)[C@H](CC(C)C)NC(=O)[C@H](Cc1c[nH]c2ccccc12)NC(=O)[C@H](CC(N)=O)NC(=O)[C@@H](NC(=O)[C@H](Cc1ccccc1)NC(=O)[C@H](C)NC(=O)[C@H](CCC(N)=O)NC(=O)[C@H](C)NC(=O)[C@H](C)NC(=O)[C@H](CCC(N)=O)NC(=O)[C@H](CCCCNC(=O)[C@@H](N)CCCCNC(=O)[C@@H](N)CCCCNC(=O)CC[C@H](NC(=O)CCCCCCCCCCCCCCCCC(=O)O)C(=O)O)NC(=O)[C@H](CCC(=O)O)NC(=O)[C@H](CC(C)C)NC(=O)[C@H](Cc1ccc(O)cc1)NC(=O)[C@H](Cc1ccc(O)cc1)NC(=O)[C@H](CO)NC(=O)[C@H](Cc1ccc(O)cc1)NC(=O)[C@H](CC(=O)O)NC(=O)[C@H](CO)NC(=O)[C@@H](NC(=O)[C@H](Cc1ccccc1)NC(=O)[C@@H](NC(=O)CNC(=O)[C@H](CCC(=O)O)NC(=O)C(C)(C)NC(=O)[C@@H](N)Cc1ccc(O)cc1)[C@@H](C)O)[C@@H](C)O)C(C)C)C(=O)N[C@@H](C)C(=O)NCC(=O)NCC(=O)N1CCC[C@H]1C(=O)N[C@@H](CO)C(=O)N[C@@H](CO)C(=O)NCC(=O)N[C@@H](C)C(=O)N1CCC[C@H]1C(=O)N1CCC[C@H]1C(=O)N1CCC[C@H]1C(=O)N[C@@H](CO)C(=O)O [Compound No. 5] (H-Y[Aib]EGTFTSDYSYYLEK([εLys-εLys-γGlu-C18 diacid])QAAQAFVNWLLAGGPSSGAPPPS-OH; N-terminus assumed) | 0.0142 | 0.362 | 0.0094 | 0.625 |
| CC[C@H](C)[C@H](NC(=O)[C@H](CO)NC(=O)[C@H](Cc1ccc(O)cc1)NC(=O)[C@H](CC(=O)O)NC(=O)[C@H](CO)NC(=O)[C@@H](NC(=O)[C@H](Cc1ccccc1)NC(=O)[C@@H](NC(=O)CNC(=O)[C@H](CCC(=O)O)NC(=O)C(C)(C)NC(=O)[C@@H](N)Cc1ccc(O)cc1)[C@@H](C)O)[C@@H](C)O)C(=O)N[C@@H](Cc1ccc(O)cc1)C(=O)N[C@@H](CC(C)C)C(=O)N[C@@H](CCC(=O)O)C(=O)N[C@@H](CCCCNC(=O)[C@@H](N)CCCCNC(=O)[C@@H](N)CCCCNC(=O)CC[C@H](NC(=O)CCCCCCCCCCCCCCCCC(=O)O)C(=O)O)C(=O)N[C@@H](CCC(N)=O)C(=O)N[C@@H](C)C(=O)N[C@@H](C)C(=O)N[C@@H](CCCNC(=N)N)C(=O)N[C@@H](CCC(=O)O)C(=O)N[C@@H](Cc1ccccc1)C(=O)N[C@H](C(=O)N[C@@H](CC(N)=O)C(=O)N[C@@H](Cc1c[nH]c2ccccc12)C(=O)N[C@@H](CC(C)C)C(=O)N[C@@H](CC(C)C)C(=O)N[C@@H](C)C(=O)NCC(=O)NCC(=O)N1CCC[C@H]1C(=O)N[C@@H](CO)C(=O)N[C@@H](CO)C(=O)NCC(=O)N[C@@H](C)C(=O)N1CCC[C@H]1C(=O)N1CCC[C@H]1C(=O)N1CCC[C@H]1C(=O)N[C@@H](CO)C(N)=O)C(C)C [Compound No. 6] (H-Y[Aib]EGTFTSDYSIYLEK([εLys-εLys-γGlu-C18 diacid])QAAREFVNWLLAGGPSSGAPPPS-NH2) | 0.0185 | 0.434 | 0.0034 | 0.243 |
| CC[C@H](C)[C@H](NC(=O)[C@H](CO)NC(=O)[C@H](Cc1ccc(O)cc1)NC(=O)[C@H](CC(=O)O)NC(=O)[C@H](CO)NC(=O)[C@@H](NC(=O)[C@H](Cc1ccccc1)NC(=O)[C@@H](NC(=O)CNC(=O)[C@H](CCC(=O)O)NC(=O)C(C)(C)NC(=O)[C@@H](N)Cc1ccc(O)cc1)[C@@H](C)O)[C@@H](C)O)C(=O)N[C@@H](Cc1ccc(O)cc1)C(=O)N[C@@H](CC(C)C)C(=O)N[C@@H](CCC(=O)O)C(=O)N[C@@H](CCCCNC(=O)COCCOCCNC(=O)COCCOCCNC(=O)CC[C@H](NC(=O)CCCCCCCCCCCCCCCCC(=O)O)C(=O)O)C(=O)N[C@@H](CCC(N)=O)C(=O)N[C@@H](C)C(=O)N[C@@H](C)C(=O)N[C@@H](CCCNC(=N)N)C(=O)N[C@@H](CCC(=O)O)C(=O)N[C@@H](Cc1ccccc1)C(=O)N[C@H](C(=O)N[C@@H](CC(N)=O)C(=O)N[C@@H](Cc1c[nH]c2ccccc12)C(=O)N[C@@H](CC(C)C)C(=O)N[C@@H](CC(C)C)C(=O)N[C@@H](C)C(=O)NCC(=O)NCC(=O)N1CCC[C@H]1C(=O)N[C@@H](CO)C(=O)N[C@@H](CO)C(=O)NCC(=O)N[C@@H](C)C(=O)N1CCC[C@H]1C(=O)N1CCC[C@H]1C(=O)N1CCC[C@H]1C(=O)N[C@@H](CO)C(N)=O)C(C)C [Compound No. 7] (H-Y[Aib]EGTFTSDYSIYLEK([AEEA-AEEA-γGlu-C18 diacid])QAAREFVNWLLAGGPSSGAPPPS-NH2) | 0.0287 | 0.687 | 0.0042 | 0.513 |
| CC[C@H](C)[C@H](NC(=O)[C@H](Cc1ccccc1)NC(=O)[C@H](CCC(=O)O)NC(=O)[C@H](CCCNC(=N)N)NC(=O)[C@H](C)NC(=O)[C@H](C)NC(=O)[C@H](CCC(N)=O)NC(=O)[C@H](CCCCNC(=O)[C@@H](N)CCCCNC(=O)[C@@H](N)CCCCNC(=O)CC[C@H](NC(=O)CCCCCCCCCCCCCCCCC(=O)O)C(=O)O)NC(=O)[C@H](CCC(=O)O)NC(=O)[C@H](CC(C)C)NC(=O)[C@H](Cc1ccc(O)cc1)NC(=O)[C@@H](NC(=O)[C@H](CO)NC(=O)[C@H](Cc1ccc(O)cc1)NC(=O)[C@H](CC(=O)O)NC(=O)[C@H](CO)NC(=O)[C@@H](NC(=O)[C@H](Cc1ccccc1)NC(=O)[C@@H](NC(=O)CNC(=O)[C@H](CCC(=O)O)NC(=O)C(C)(C)NC(=O)[C@@H](N)Cc1ccc(O)cc1)[C@@H](C)O)[C@@H](C)O)[C@@H](C)CC)C(=O)N[C@@H](CC(N)=O)C(=O)N[C@@H](Cc1c[nH]c2ccccc12)C(=O)N[C@@H](CC(C)C)C(=O)N[C@@H](CC(C)C)C(=O)N[C@@H](C)C(=O)NCC(=O)NCC(=O)N1CCC[C@H]1C(=O)N[C@@H](CO)C(=O)N[C@@H](CO)C(=O)NCC(=O)N[C@@H](C)C(=O)N1CCC[C@H]1C(=O)N1CCC[C@H]1C(=O)N1CCC[C@H]1C(=O)N[C@@H](CO)C(N)=O [Compound No. 8] (H-Y[Aib]EGTFTSDYSIYLEK([εLys-εLys-γGlu-C18 diacid])QAAREFINWLLAGGPSSGAPPPS-NH2) | 0.0067 | 0.191 | 0.0023 | 0.0821 |
